Results: ChEMBL document CHEMBL4431345, “A fluorescence polarization based assay for the identification and characterization of polymerase inhibitors” (Bioorg Med Chem Lett, 2016)
pIC50: −log10 of the molar value.

Key:
[1] = Inhibition of Escherichia coli DNA polymerase 1 Klenow fragment preincubated for 15 mins followed by addition of DNA substrate for 60 mins in presence of dNTPS/TAMRA tracer by fluorescence polarization assay
[2] = Inhibition of Escherichia coli DNA polymerase 1 Klenow fragment preincubated for 15 mins followed by addition of DNA substrate for 60 mins in presence of dNTPS by picoGreen reagent based assay

Work on `Nc1ncnc2c1ncn2[C@H]1CC[C@@H](COP(=O)(O)OP(=O)(O)OP(=O)(O)O)O1` [DDA-TRIPHOSPHATE] yielded a pIC50 [1] of 4.57 and a pIC50 [2] of 4.16.
